{
  "source": "ChEMBL document CHEMBL3232769",
  "about": "“Design and synthesis of conformationally restricted inhibitors of active thrombin activatable fibrinolysis inhibitor (TAFIa)” (Bioorg Med Chem, 2014)",
  "key": {"Carboxypeptidase B2 [1]": {"molecular_target": "T1, Carboxypeptidase B2 (Homo sapiens, UniProt Q96IY4)", "T1 sequence (Q96IY4 whole entry)": "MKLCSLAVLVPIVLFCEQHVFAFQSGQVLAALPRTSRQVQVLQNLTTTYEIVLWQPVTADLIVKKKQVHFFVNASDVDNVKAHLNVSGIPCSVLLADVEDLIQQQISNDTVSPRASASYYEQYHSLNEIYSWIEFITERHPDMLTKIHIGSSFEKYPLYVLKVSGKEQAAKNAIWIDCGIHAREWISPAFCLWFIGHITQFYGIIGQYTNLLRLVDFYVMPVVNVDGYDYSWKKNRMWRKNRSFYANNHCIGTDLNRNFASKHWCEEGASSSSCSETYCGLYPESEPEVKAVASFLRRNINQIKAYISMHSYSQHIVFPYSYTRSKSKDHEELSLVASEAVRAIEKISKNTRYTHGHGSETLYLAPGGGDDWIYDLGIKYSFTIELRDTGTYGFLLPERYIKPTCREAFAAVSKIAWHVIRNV", "experiment": "Inhibition of […] in human plasma assessed as clot lysis"}, "Carboxypeptidase B2 [2]": {"molecular_target": "T1, Carboxypeptidase B2", "experiment": "Inhibition of human […] using hippuryl-L-arginine/hippuryl-L-lysine as substrate by liquid chromatographic analysis"}, "[3]": {"experiment": "Oral bioavailability in rat", "format": "ADME, organism-based", "details": "in vivo"}, "[4]": {"experiment": "Clearance in rat", "format": "ADME, organism-based", "details": "in vivo"}, "Carboxypeptidase B2 [5]": {"molecular_target": "T1, Carboxypeptidase B2", "experiment": "Inhibition of human TAF1a"}, "[6]": {"experiment": "Lipophilicity, log D of the compound at pH 7.4", "details": "buffer"}, "[7]": {"molecular_target": "T2, Carboxypeptidase N catalytic chain (Homo sapiens, UniProt P15169)", "T2 sequence (P15169 whole entry)": "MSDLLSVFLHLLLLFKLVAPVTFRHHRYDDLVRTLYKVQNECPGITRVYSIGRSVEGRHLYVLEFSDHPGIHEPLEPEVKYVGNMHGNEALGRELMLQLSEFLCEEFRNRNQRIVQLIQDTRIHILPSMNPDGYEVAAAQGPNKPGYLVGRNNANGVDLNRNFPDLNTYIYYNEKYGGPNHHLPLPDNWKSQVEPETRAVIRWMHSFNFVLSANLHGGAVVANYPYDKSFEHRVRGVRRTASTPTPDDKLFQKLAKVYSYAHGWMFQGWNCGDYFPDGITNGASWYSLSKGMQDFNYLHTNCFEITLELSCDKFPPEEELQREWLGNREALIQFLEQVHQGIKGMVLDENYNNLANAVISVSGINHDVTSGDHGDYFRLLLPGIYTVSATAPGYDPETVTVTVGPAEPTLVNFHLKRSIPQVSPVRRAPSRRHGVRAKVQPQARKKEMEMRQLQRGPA", "experiment": "Inhibition of carboxypeptidase N (unknown origin)"}, "[8]": {"molecular_target": "Phosphodiesterase 4 (Homo sapiens) (UniProt P27815+Q08499+Q07343+Q08493)", "experiment": "Inhibition of PDE4 (unknown origin) at 10 uM", "format": "protein assay"}, "[9]": {"experiment": "Oral bioavailability in rat at 20 umol/kg", "format": "ADME, organism-based", "details": "in vivo"}, "[10]": {"experiment": "Tmax in rat", "format": "ADME, organism-based", "details": "in vivo"}, "[11]": {"experiment": "Clearance in dog", "format": "ADME, organism-based, Canis lupus familiaris", "details": "in vivo"}, "[12]": {"experiment": "Oral bioavailability in rat at 6.8 umol/kg", "format": "ADME, organism-based", "details": "in vivo"}},
  "data": [
    {"smiles": "CCCn1cnc(CC(NCCN)C(=O)O)c1", "note": "(stereo not drawn)", "values": [
      {"measurement": "IC50", "setting": "Carboxypeptidase B2 [1]", "value": 8, "unit": "µM"},
      {"measurement": "IC50", "setting": "Carboxypeptidase B2 [2]", "value": 0.62, "unit": "µM"}
    ]},
    {"smiles": "NCCC[C@@]1(C(=O)O)CCn2c(-c3ccccc3)cnc2C1", "values": [
      {"measurement": "IC50", "setting": "Carboxypeptidase B2 [1]", "value": 1.3, "unit": "µM"},
      {"measurement": "bioavailability", "setting": "[3]", "value": 4.9, "unit": "%"},
      {"measurement": "clearance", "setting": "[4]", "value": 12, "unit": "mL/min/kg"},
      {"measurement": "IC50", "setting": "Carboxypeptidase B2 [5]", "value": 0.066, "unit": "µM"},
      {"measurement": "logD", "setting": "[6]", "value": "< 0"},
      {"measurement": "IC50", "setting": "[7]", "value": "> 1000", "unit": "µM"},
      {"measurement": "inhibition", "setting": "[8]", "value": 79, "unit": "%"}
    ]},
    {"smiles": "Cl.NCCC[C@@]1(C(=O)O)CCn2c(-c3cccc(-c4ccc(Cl)cc4Cl)c3)cnc2C1", "values": [
      {"measurement": "IC50", "setting": "Carboxypeptidase B2 [1]", "value": 3.2, "unit": "µM"},
      {"measurement": "bioavailability", "setting": "[3]", "value": 0.9, "unit": "%"},
      {"measurement": "IC50", "setting": "Carboxypeptidase B2 [5]", "value": "< 0.041", "unit": "µM"},
      {"measurement": "logD", "setting": "[6]", "value": 2.4},
      {"measurement": "IC50", "setting": "[7]", "value": "> 1000", "unit": "µM"}
    ]},
    {"smiles": "NCCCC1(C(=O)O)CCc2c(ncn2CCC2CCC(C3CCCCC3)CC2)C1", "note": "(racemic)", "values": [
      {"measurement": "IC50", "setting": "Carboxypeptidase B2 [1]", "value": 16, "unit": "µM"},
      {"measurement": "IC50", "setting": "Carboxypeptidase B2 [5]", "value": 0.124, "unit": "µM"},
      {"measurement": "logD", "setting": "[6]", "value": 3.6},
      {"measurement": "IC50", "setting": "[7]", "value": "> 1000", "unit": "µM"}
    ]},
    {"smiles": "NCCCC1(C(=O)O)CCc2c(ncn2-c2ccccc2)C1", "note": "(racemic)", "values": [
      {"measurement": "IC50", "setting": "Carboxypeptidase B2 [1]", "value": 7.1, "unit": "µM"},
      {"measurement": "IC50", "setting": "Carboxypeptidase B2 [5]", "value": 0.585, "unit": "µM"},
      {"measurement": "IC50", "setting": "[7]", "value": "> 1000", "unit": "µM"}
    ]},
    {"smiles": "CCCn1cnc(C[C@H](CCCN)C(=O)O)c1", "note": "[UK-396,082]", "values": [
      {"measurement": "IC50", "setting": "Carboxypeptidase B2 [1]", "value": 5, "unit": "µM"},
      {"measurement": "IC50", "setting": "Carboxypeptidase B2 [2]", "value": 0.45, "unit": "µM"},
      {"measurement": "bioavailability", "setting": "[9]", "value": 8, "unit": "%"},
      {"measurement": "clearance", "setting": "[4]", "value": 2, "unit": "mL/min/kg"},
      {"measurement": "Tmax", "setting": "[10]", "value": 60, "unit": "min"}
    ]},
    {"smiles": "C[C@@H](S)[C@@H](Cc1ccc(N)nc1)C(=O)O", "values": [
      {"measurement": "IC50", "setting": "Carboxypeptidase B2 [1]", "value": 0.4, "unit": "µM"},
      {"measurement": "IC50", "setting": "Carboxypeptidase B2 [2]", "value": 0.087, "unit": "µM"},
      {"measurement": "bioavailability", "setting": "[3]", "value": 75, "unit": "%"},
      {"measurement": "clearance", "setting": "[4]", "value": 27, "unit": "mL/min/kg"},
      {"measurement": "Tmax", "setting": "[10]", "value": 30, "unit": "min"}
    ]},
    {"smiles": "NCCC[C@@]1(C(=O)O)CCc2c(ncn2Cc2cccc(-c3ccccc3)c2)C1", "values": [
      {"measurement": "IC50", "setting": "Carboxypeptidase B2 [1]", "value": 2.5, "unit": "µM"},
      {"measurement": "bioavailability", "setting": "[3]", "value": 1.7, "unit": "%"},
      {"measurement": "IC50", "setting": "Carboxypeptidase B2 [5]", "value": 0.106, "unit": "µM"},
      {"measurement": "logD", "setting": "[6]", "value": 1},
      {"measurement": "IC50", "setting": "[7]", "value": "> 1000", "unit": "µM"}
    ]},
    {"smiles": "NCCC[C@@]1(C(=O)O)CCc2c(ncn2C2CCCCC2)C1", "values": [
      {"measurement": "IC50", "setting": "Carboxypeptidase B2 [1]", "value": 0.08, "unit": "µM"},
      {"measurement": "bioavailability", "setting": "[3]", "value": 1.4, "unit": "%"},
      {"measurement": "clearance", "setting": "[4]", "value": 6.2, "unit": "mL/min/kg"},
      {"measurement": "IC50", "setting": "Carboxypeptidase B2 [5]", "value": 0.117, "unit": "µM"},
      {"measurement": "logD", "setting": "[6]", "value": "< 0"},
      {"measurement": "IC50", "setting": "[7]", "value": "> 1000", "unit": "µM"},
      {"measurement": "clearance", "setting": "[11]", "value": 3.5, "unit": "mL/min/kg"},
      {"measurement": "inhibition", "setting": "[8]", "value": 79, "unit": "%"}
    ]},
    {"smiles": "CCc1cnc2n1CCC(CCCN)(C(=O)O)C2", "note": "(racemic)", "values": [
      {"measurement": "IC50", "setting": "Carboxypeptidase B2 [1]", "value": "> 100", "unit": "µM"},
      {"measurement": "IC50", "setting": "Carboxypeptidase B2 [5]", "value": 2.27, "unit": "µM"},
      {"measurement": "IC50", "setting": "[7]", "value": "> 1000", "unit": "µM"}
    ]},
    {"smiles": "CCCn1cnc2c1CC[C@@](CCCN)(C(=O)O)C2", "values": [
      {"measurement": "bioavailability", "setting": "[9]", "value": 2, "unit": "%"},
      {"measurement": "bioavailability", "setting": "[12]", "value": 8, "unit": "%"},
      {"measurement": "clearance", "setting": "[4]", "value": 6, "unit": "mL/min/kg"},
      {"measurement": "Tmax", "setting": "[10]", "value": 12, "unit": "min"},
      {"measurement": "logD", "setting": "[6]", "value": "< 0"},
      {"measurement": "IC50", "setting": "[7]", "value": "> 1000", "unit": "µM"}
    ]},
    {"smiles": "CC(C)CCn1cnc2c1CC[C@@](CCCN)(C(=O)O)C2.Cl", "values": [
      {"measurement": "IC50", "setting": "Carboxypeptidase B2 [1]", "value": 0.1, "unit": "µM"},
      {"measurement": "bioavailability", "setting": "[3]", "value": 1.4, "unit": "%"},
      {"measurement": "IC50", "setting": "Carboxypeptidase B2 [5]", "value": "< 0.041", "unit": "µM"},
      {"measurement": "logD", "setting": "[6]", "value": "< 0"},
      {"measurement": "IC50", "setting": "[7]", "value": "> 1000", "unit": "µM"}
    ]}
  ]
}
